Test results taken from PubChem BioAssay (NCI).
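Where inhibition never reached the appropriate level, the endpoint shown equals the highest concentration tested. Otherwise, values were interpolated linearly from a five-concentration, 48-hour dose response in 96-well plates. Here, GI50 denotes the concentration required for 50% inhibition of growth. TGI is the concentration that stops growth completely.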

Tests used:
Test in all cases: NCI tumour cell line growth inhibition, 48 h; in the data active means GI50 below about 0.43 µM; inactive means the rest
HCT-116 colon = test system: HCT-116 colon
LOX IMVI melanoma = test system: LOX IMVI melanoma
NCI-H460 lung = test system: NCI-H460 lung
SF-295 CNS = test system: SF-295 CNS
SNB-75 CNS = test system: SNB-75 CNS
RXF 393 renal = test system: RXF 393 renal
NCI/ADR-RES ovarian = test system: NCI/ADR-RES ovarian
NCI-H522 lung = test system: NCI-H522 lung
A549 NSCLC = test system: A549 NSCLC
UACC-62 melanoma = test system: UACC-62 melanoma
TK-10 renal = test system: TK-10 renal
SK-MEL-5 melanoma = test system: SK-MEL-5 melanoma
DU-145 prostate = test system: DU-145 prostate
A498 renal = test system: A498 renal
EKVX NSCLC = test system: EKVX NSCLC
PC-3 prostate = test system: PC-3 prostate
OVCAR-8 ovarian = test system: OVCAR-8 ovarian
ACHN renal = test system: ACHN renal
BT-549 breast = test system: BT-549 breast
HCT-15 colon = test system: HCT-15 colon
786-0 renal = test system: 786-0 renal
UO-31 renal = test system: UO-31 renal
NCI-H23 lung = test system: NCI-H23 lung
M14 melanoma = test system: M14 melanoma
OVCAR-5 ovarian = test system: OVCAR-5 ovarian
SK-OV-3 ovarian = test system: SK-OV-3 ovarian
NCI-H226 lung = test system: NCI-H226 lung
MCF7 breast = test system: MCF7 breast
UACC-257 melanoma = test system: UACC-257 melanoma
HOP-62 NSCLC = test system: HOP-62 NSCLC
SNB-19 CNS = test system: SNB-19 CNS
COLO 205 colon = test system: COLO 205 colon
MOLT-4 leukemia = test system: MOLT-4 leukemia
SR leukemia = test system: SR leukemia
CAKI-1 renal = test system: CAKI-1 renal
SF-539 CNS = test system: SF-539 CNS
OVCAR-4 ovarian = test system: OVCAR-4 ovarian
MDA-MB-435 = test system: MDA-MB-435
OVCAR-3 ovarian = test system: OVCAR-3 ovarian
HL-60(TB) leukemia = test system: HL-60(TB) leukemia
KM12 colon = test system: KM12 colon
SW-620 colon = test system: SW-620 colon
HT29 colon = test system: HT29 colon

CCN1C/C(=C\c2ccc(Cl)cc2)C2=NN(c3ccccc3)C(c3ccc(Cl)cc3)C2C1 (centres undefined)
> 100 µM: TGI (HCT-116 colon) | TGI (LOX IMVI melanoma) | TGI (NCI-H460 lung) | TGI (SF-295 CNS) | TGI (SNB-75 CNS) | TGI (RXF 393 renal) | TGI (NCI/ADR-RES ovarian) | TGI (NCI-H522 lung) | TGI (A549 NSCLC) | TGI (UACC-62 melanoma) | TGI (TK-10 renal) | TGI (SK-MEL-5 melanoma) | TGI (DU-145 prostate) | TGI (A498 renal) | TGI (EKVX NSCLC) | TGI (PC-3 prostate) | TGI (OVCAR-8 ovarian) | TGI (ACHN renal) | TGI (BT-549 breast) | TGI (HCT-15 colon) | TGI (786-0 renal) | TGI (UO-31 renal) | TGI (NCI-H23 lung) | TGI (M14 melanoma) | TGI (OVCAR-5 ovarian) | TGI (SK-OV-3 ovarian) | TGI (NCI-H226 lung) | TGI (MCF7 breast) | TGI (UACC-257 melanoma) | TGI (HOP-62 NSCLC) | TGI (SNB-19 CNS) | TGI (COLO 205 colon)

NCCCCCCNc1cc(-c2cccc(OC(F)(F)F)c2)nc2ccc(N3CCCC3)cc12
1.73 µM: TGI (SR leukemia)
inactive: GI50 (SF-295 CNS) 1.75 µM | GI50 (SNB-75 CNS) 1.57 µM | GI50 (RXF 393 renal) 1.22 µM | GI50 (MOLT-4 leukemia) 1.6 µM | GI50 (NCI-H522 lung) 1.66 µM | GI50 (TK-10 renal) 1.88 µM | GI50 (DU-145 prostate) 1.55 µM | GI50 (CAKI-1 renal) 1.72 µM | GI50 (A498 renal) 1.46 µM | GI50 (EKVX NSCLC) 1.64 µM | GI50 (ACHN renal) 1.74 µM | GI50 (SF-539 CNS) 1.59 µM | GI50 (OVCAR-5 ovarian) 1.83 µM | GI50 (OVCAR-4 ovarian) 1.59 µM | GI50 (MDA-MB-435) 1.64 µM | GI50 (OVCAR-3 ovarian) 1.68 µM | GI50 (HL-60(TB) leukemia) 2.01 µM | GI50 (KM12 colon) 1.79 µM | GI50 (SW-620 colon) 1.48 µM | GI50 (HT29 colon) 1.62 µM
active: GI50 (SR leukemia) 0.349 µM
3.15 µM: TGI (SF-295 CNS)
4 µM: TGI (HL-60(TB) leukemia)
2.81 µM: TGI (A498 renal)
3 µM: TGI (SF-539 CNS)
3.02 µM: TGI (SW-620 colon)
3.28 µM: TGI (OVCAR-5 ovarian)
3.01 µM: TGI (EKVX NSCLC) | TGI (MDA-MB-435)
3.17 µM: TGI (OVCAR-4 ovarian)
3.36 µM: TGI (TK-10 renal)
3.59 µM: TGI (MOLT-4 leukemia)
3.14 µM: TGI (OVCAR-3 ovarian)
3.06 µM: TGI (HT29 colon)
2.52 µM: TGI (RXF 393 renal)
3.38 µM: TGI (KM12 colon)
3.11 µM: TGI (ACHN renal)
3.1 µM: TGI (NCI-H522 lung) | TGI (CAKI-1 renal)
2.94 µM: TGI (SNB-75 CNS) | TGI (DU-145 prostate)
